How the values were obtained:
eHAP MUS81−/− cells = test: Cell viability assay (CellTiter-Glo), eHAP MUS81−/− cells; assay type: cell-based, human; details: for effect on viability, agent alone: single agent
Experimental: (§1) For analysis of cell viability following exposure to olaparib (Selleckchem), deoxyribonucleosides and DNPH1i (N6-benzyladenosine, Carbosynth), cells were seeded in 96-well plates at a density of 100-500 cells per well. Twenty-four hours post-seeding, drug treatments were initiated, and cells were continuously exposed until termination of the experiment. Cell viability was measured using CellTiter-Glo (Promega). The surviving fractions were measured, and drug sensitivity curves were plotted using GraphPad Prism. The following nucleosides were purchased from commercial sources: dU (2′-deoxyuridine), hdU (5-hydroxy-2′-deoxyuridine), hmdU (5-hydroxymethyl-2′-deoxyuridine), mdC (5-methyl-2′-deoxycytidine), hmdC (5-hydroxymethyl-2′-deoxycytidine), cadC (5-carboxy-2-deoxycytidine), fodC (5-formyl-2-deoxycytidine), dl (2′-deoxyinosine), dX (2′-deoxyxanthosine), 8odG (8-oxo-2′-deoxyguanosine), hmU (5 hydroxymethyluridine), hmC (5-hydroxymethyl-cytidine). fodU (5-formyl-2′-deoxyuridine) was synthesized as previously described (Guo et al Org. Biomol. Chem. 11, 1610-1613 (2013).

[1] = test system: eHAP MUS81−/−DNPH1−/− cells; test: Cell viability assay (CellTiter-Glo), eHAP MUS81−/−DNPH1−/− cells; assay type: cell-based, human; details: for sensitisation to PARP inhibitor by loss of DNPH1: vs MUS81 k/o cells, continuous treatment 6 days; for sensitivity of MUS81/DNPH1 k/o cells to nucleoside treatment (cell viability): nucleoside 200 nM, vs MUS81 k/o
Experimental: as §1

recombinant human DNPH1 = molecular target: T1, recombinant human DNPH1 (Homo sapiens, UniProt O43598); test: DNPH1 in vitro activity assay (RP-HPLC); assay type: biochemical; details: for DNPH1 activity towards nucleoside monophosphate substrates: DNPH1 4 μM, substrate 1 mM, 45 min, RP-HPLC
T1 construct: His6 (N); made in house; host or cells: E. coli BL21 (pET28a)
T1 sequence (O43598 1-174): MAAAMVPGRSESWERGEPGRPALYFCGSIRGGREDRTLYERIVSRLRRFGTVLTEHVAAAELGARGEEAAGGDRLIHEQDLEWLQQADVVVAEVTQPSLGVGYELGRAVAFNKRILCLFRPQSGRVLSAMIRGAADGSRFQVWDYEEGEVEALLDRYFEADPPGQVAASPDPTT
Experimental: HIS6DNPH1 and HIS6DNPH1E105Q, cloned in pET28a were transformed into BL21 cells. Transformed cells were inoculated into 2 L of TB media supplemented with 50 μg/ml kanamycin and incubated 37° C. until an OD600=1.0. IPTG (0.5 mM) was added and incubation continued for 4 hours. Cells were harvested by centrifugation and resuspended in lysis buffer (50 mM HEPES pH 7.5, 300 mM NaCl, 5% glycerol, 0.5 mM TCEP) supplemented with protease inhibitors (Complete EDTA-free tablets, Roche). Cells were lysed by passage through an Emulsiflex C5 (Avestin) at […], and the chromatin sheared by sonication at 50% maximum amplitude for 2×30 sec. Soluble proteins were isolated by ultracentrifugation (Beckman Type JLA25.50 rotor) at 60,000×g for 60 min (4° C.). Soluble extract was supplemented with 30 mM imidazole and incubated with 2 ml Ni-NTA beads (GE Healthcare) for 1 hour (4° C.). The beads were washed (50 mM HEPES pH 7.5, 300 mM NaCl, 30 mM imidazole, 5% glycerol, 0.5 mM TCEP) and protein eluted (50 mM HEPES pH7.5, 300 mM NaCl, 200 mM imidazole, 5% glycerol, 0.5 mM TCEP). The eluates were pooled, diluted dropwise to 100 mM NaCl (50 mM HEPES pH 7.5, 5% glycerol, 0.5 mM DTT) and DNPH1 further purified using a 5 ml HiTRAP QHP column (GE Healthcare), followed by a Superdex 200 Increase 10/300 column (GE Healthcare). Peak fractions were separated by SDS-PAGE and visualized with Instant Blue (Gentaur). Peak fractions were frozen in aliquots and stored at −80° C.
DNPH1 (4 μM) was incubated with nucleoside monophosphates (1 mM) in 20 mM sodium phosphate, pH 7.0, 150 mM NaCl, 2 mM MgCl2. After 45 min at room temperature the reaction was quenched by addition of 0.7% perchloric acid followed by immediate neutralization with addition of sodium acetate to 200 mM. Samples were diluted 1:10 into RP-Buffer (100 mM K2HPO4/KH2PO4, pH 6.5, 10 mM tetrabutylammonium bromide, 7% acetonitrile) and the nucleotides and reaction products separated from precipitated protein by filtration through a 0.22 μm centrifugal filter (Durapore-PVDF, Millipore). Samples of each reaction (5 nmol) were applied to a Zorbax SB-C18 column (4.6×250 mm, 3.5 μm, 80A pore size, Agilent Technologies), maintained at 30° C. and mounted on a Jasco HPLC system controlled by Chromnav software (v1.19, Jasco). Nucleoside monophosphates and reaction products were separated under isocratic flow by application of RP-Buffer at 1 mL/min. Absorbance data from the column eluent was continuously monitored between 200-400 nm (2 nm interval) using an MD-2010 photodiode array detector (JASCO). […] Peak integration of the absorbance data recorded at 260 nm was used to quantify the amount of substrate and product. […] The rate was determined by linear regression of a plot of product against reaction time.

[2] = test system: SUM149 BRCA1mut (parental) cells; test: Cell viability assay, SUM149 BRCA1mut (parental) cells; assay type: cell-based, human; details: olaparib 250 nM or hmdU 2 μM, 8 days
Experimental: as §1

DLD1 BRCA2−/− cells = test: Cell viability assay, DLD1 BRCA2−/− cells; assay type: cell-based; details: olaparib 10 nM or hmdU 2 μM, 10 days
Experimental: as §1

[3] = test system: eHAP WT and MUS81−/− isogenic cells; test: LD80 dose used in genome-wide CRISPR-Cas9 screen; assay type: cell-based, human; details: 10 days
Experimental: eHAP WT and MUS81−/− isogenic cells were transduced with a genome-wide lentiviral lentiCRISPRv2 sgRNA library (Doench et al 2016, PMID: 26780180) using multiplicity of infection (MOI) of ˜0.5 with a complexity of 400 cells/sgRNA. Transduced cells were selected with puromycin (0.4 mg/ml), expanded for 7 days, and sub-cultured in the presence or absence of an LD80 dose of olaparib (200 nM) or hmdC (1000 nM) for 10 days. Surviving cells were collected and genomic DNA was extracted using DNeasy Blood & Tissue Kit (Qiagen) supplemented with RNAse (Qiagen) according to the manufacturer's instructions. The CRISPR screens were carried out in biological triplicates. Libraries for Illumina sequencing were generated by two-step PCR amplification. In the first PCR, the sgRNA library was amplified and adaptors were added using nesting primers and the second PCR added barcodes, stagger regions, flow cell attachment and Illumina sequencing primers.
MUS81 k/o cells were transduced with the lentiviral-based Brunello genome-wide gRNA library (J. G. Doench et al Nat. Biotechnol. 34, 184-191 (2016)), followed by treatment with olaparib for 10 days. […] Bioinformatic analysis of the gRNA reads using the MAGeCK algorithm identified several novel, as well as previously reported, factors determining PARPi efficacy (FIG. 1).

DCTD k/o cell lines = test: Cell viability, DCTD k/o cell lines; assay type: cell-based
Experimental: as §1

SMILES | effect on viability, agent alone (eHAP MUS81−/− cells) | sensitisation to PARP inhibitor by loss of DNPH1 [1] | DNPH1 activity towards nucleoside monophosphate substrates (recombinant human DNPH1) | further results
Cn1ncnc1[C@H]1c2n[nH]c(=O)c3cc(F)cc(c23)N[C@@H]1c1ccc(F)cc1 [talazoparib, (8S,9R)-5-Fluoro-8-(4-fluorophenyl)-9-(1-methyl-1H-1,2,4-triazol-5-yl)-2,7,8,9-tetrahydro-3H-pyrido[4,3,2-de]phthalazin-3-one] | limited effect on viability | sensitised | – | –
C[C@]1(c2nc3c(C(N)=O)cccc3[nH]2)CCCN1 [veliparib, 2-[(2R)-2-Methyl-2-pyrrolidinyl]-1H-benzimidazole-4-carboxamide] | limited effect on viability | sensitised | – | –
O=c1ccn([C@H]2C[C@H](O)[C@@H](COP(=O)(O)O)O2)c(=O)[nH]1 [dUMP] | – | – | Little or no activity | –
O=c1ccn([C@@H]2O[C@H](COP(=O)(O)O)[C@@H](O)[C@H]2O)c(=O)[nH]1 [UMP] | – | – | Little or no activity | –
O=C(c1cc(Cc2n[nH]c(=O)c3ccccc23)ccc1F)N1CCN(C(=O)C2CC2)CC1 [olaparib, 1-(Cyclopropylcarbonyl)-4-[5-[(3,4-dihydro-4-oxo-1-phthalazinyl)methyl]-2-fluorobenzoyl]piperazine] | limited effect on viability | sensitized | – | effect on viability, agent alone [2]: limited effect on viability; effect on viability, agent alone (DLD1 BRCA2−/− cells): limited effect on viability; LD80 dose [3]: 200 nM
OC[C@H]1O[C@@H](n2cnc3c(NCc4ccccc4)ncnc32)[C@H](O)[C@@H]1O [DNPH1i, N6-benzyladenosine] | no effect on viability | – | – | effect of DNPH1i on viability (specificity control) (eHAP MUS81−/− cells; with hmdU, 6 days, cells with DNPH1 (text: wild-type)): dose-dependent decrease in viability; effect of DNPH1i on viability (specificity control) ([1]; with hmdU, 6 days, DNPH1 k/o cells): only a marginal effect
O=c1[nH]c(=O)n([C@H]2C[C@H](O)C(COP(=O)(O)O)O2)cc1CO (some centres unmarked) [hmdUMP] | – | – | efficiently hydrolyzed | reaction rate of hmdUMP hydrolysis by DNPH1 (recombinant human DNPH1; DNPH1 (2 μM), samples quenched at intervals up to 20 minutes, linear regression): 14.6 ± 0.4 µM/min
Nc1nc(=O)n([C@H]2C[C@H](O)[C@@H](CO)O2)cc1CO [hmdC, 5-hydroxymethyl-2′-deoxycytidine] | – | – | – | sensitivity of MUS81/DNPH1 k/o cells to nucleoside treatment (cell viability) ([1]; 6 days): to a lesser extent; resistance of DCTD k/o cells to nucleoside treatment (DCTD k/o cell lines): completely resistant; LD80 dose [3]: 1000 nM
O=Cc1cn([C@H]2C[C@H](O)[C@@H](CO)O2)c(=O)[nH]c1=O [fodU, 5-formyl-2′-deoxyuridine] | – | – | – | sensitivity of MUS81/DNPH1 k/o cells to nucleoside treatment (cell viability) ([1]; 6 days): to a lesser extent

— US20220339179A1, “TREATMENT OF HR DEFICIENT CANCER” (THE FRANCIS CRICK INSTITUTE LIMITED, priority 2019, published 2022)
